The text below walks through data of patent US12466827B2, “1,3,4-oxadiazole derivative compounds as histone deacetylase 6 inhibitor, and the pharmaceutical composition comprising the same” (CHONG KUN DANG PHARMACEUTICAL CORP., priority 2020, dated 2025).

pIC50: −log10 of the molar value.

One assay addresses T1, human recombinant HDAC1 (Homo sapiens, UniProt Q13547).
T1 construct: purchased Enzo Life Sciences, Inc. BML-SE456
Put plainly: In vitro HDAC enzyme activity inhibition assay (HDAC1). Format: biochemical. Conditions: Fluor de Lys-SIRT1 substrate 10 μM, 30° C., 60 minutes, fluorescence. A digest of the protocol: (§1)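 Fluorimetric deacetylase kit: human recombinant HDAC1 or HDAC6 (0.3 μg) with 10 μM Fluor de Lys-SIRT1 substrate and 5-fold diluted compounds, 60 min at 30° C. Developer added for 30 min, fluorescence read at Ex 360/Em 460, IC50 calculated.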

The target of another assay is T2, human recombinant HDAC6 (Homo sapiens, UniProt Q9UBN7).
T2 construct: purchased Calbiochem Inc. 382180
T2 sequence (Q9UBN7 1-1215): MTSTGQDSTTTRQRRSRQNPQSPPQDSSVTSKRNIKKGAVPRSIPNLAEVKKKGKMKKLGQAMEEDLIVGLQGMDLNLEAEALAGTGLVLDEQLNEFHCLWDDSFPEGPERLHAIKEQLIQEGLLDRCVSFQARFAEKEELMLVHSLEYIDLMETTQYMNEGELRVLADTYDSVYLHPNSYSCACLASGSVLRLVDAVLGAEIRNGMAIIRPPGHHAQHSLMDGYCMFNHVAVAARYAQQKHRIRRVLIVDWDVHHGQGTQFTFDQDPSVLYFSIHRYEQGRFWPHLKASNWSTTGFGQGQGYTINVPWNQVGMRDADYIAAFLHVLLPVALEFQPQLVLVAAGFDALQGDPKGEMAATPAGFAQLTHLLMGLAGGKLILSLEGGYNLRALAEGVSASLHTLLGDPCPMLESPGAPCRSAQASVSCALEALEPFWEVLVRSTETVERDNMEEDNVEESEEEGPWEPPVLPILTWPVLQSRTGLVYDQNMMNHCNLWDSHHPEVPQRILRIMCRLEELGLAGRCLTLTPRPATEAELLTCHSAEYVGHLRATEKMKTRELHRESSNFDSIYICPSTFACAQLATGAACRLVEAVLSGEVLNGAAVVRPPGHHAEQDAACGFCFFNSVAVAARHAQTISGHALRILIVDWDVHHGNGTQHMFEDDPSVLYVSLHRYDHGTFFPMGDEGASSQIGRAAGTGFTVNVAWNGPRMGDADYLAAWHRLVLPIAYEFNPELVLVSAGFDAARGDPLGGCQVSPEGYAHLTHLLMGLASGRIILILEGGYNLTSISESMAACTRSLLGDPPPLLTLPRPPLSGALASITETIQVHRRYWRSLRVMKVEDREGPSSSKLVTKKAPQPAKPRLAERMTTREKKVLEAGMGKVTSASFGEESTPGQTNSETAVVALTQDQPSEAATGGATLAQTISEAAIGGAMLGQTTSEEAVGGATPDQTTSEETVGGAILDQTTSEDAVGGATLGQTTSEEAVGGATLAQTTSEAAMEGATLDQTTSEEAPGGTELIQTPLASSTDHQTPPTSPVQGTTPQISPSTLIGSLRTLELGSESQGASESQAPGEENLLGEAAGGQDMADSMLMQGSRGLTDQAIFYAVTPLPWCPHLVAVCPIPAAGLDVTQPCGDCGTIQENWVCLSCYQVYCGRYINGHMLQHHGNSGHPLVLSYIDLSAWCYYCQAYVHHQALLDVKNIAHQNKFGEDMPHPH
Description: In vitro HDAC enzyme activity inhibition assay (HDAC6). Format: biochemical. The conditions noted are these: for HDAC6 selectivity (fold): HDAC6 over HDAC1; for pIC50: same protocol as the HDAC1 test, human recombinant HDAC6 (Calbiochem). In short, it runs like this: as §1

T1 sequence (Q13547 whole entry): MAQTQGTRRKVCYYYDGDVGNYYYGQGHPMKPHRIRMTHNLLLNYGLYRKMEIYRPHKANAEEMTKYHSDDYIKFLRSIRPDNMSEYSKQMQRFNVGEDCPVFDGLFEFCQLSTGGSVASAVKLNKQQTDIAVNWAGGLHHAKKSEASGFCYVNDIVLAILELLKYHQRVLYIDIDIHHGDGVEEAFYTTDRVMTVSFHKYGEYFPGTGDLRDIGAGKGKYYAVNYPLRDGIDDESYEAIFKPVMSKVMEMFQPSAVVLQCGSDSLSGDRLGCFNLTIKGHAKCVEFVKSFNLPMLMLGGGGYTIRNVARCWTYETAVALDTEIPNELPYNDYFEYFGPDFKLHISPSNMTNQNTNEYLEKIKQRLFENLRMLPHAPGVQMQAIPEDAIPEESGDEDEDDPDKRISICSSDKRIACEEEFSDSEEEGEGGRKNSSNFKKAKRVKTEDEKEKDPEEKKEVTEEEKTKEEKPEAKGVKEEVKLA

Take `CCC(=O)N1CCN(S(=O)(=O)N(Cc2cn3ccc(-c4nnc(C(F)F)o4)cc3n2)c2ccccc2)CC1` [Compound 4266, N-((7-(5-(difluoromethyl)-1,3,4-oxadiazol-2-yl)imidazo[1,2-a]pyridin-2-yl)methyl)-N-phenyl-4-propionylpiperazine-1-sulfonamide]: the negative-log IC50 (pIC50) (usually the negative decadic logarithm of the IC50, by convention in mol/L) on human recombinant HDAC1 is less than 4.30. Also, at human recombinant HDAC6, the “HDAC6 selectivity (fold)” value is given as 431 fold and the pIC50 was 6.94.

Turning to `O=C(CO)N1CCN(S(=O)(=O)N(Cc2cn3ccc(-c4nnc(C(F)F)o4)cc3n2)c2ccccc2)CC1` [Compound 4267, N-((7-(5-(difluoromethyl)-1,3,4-oxadiazol-2-yl)imidazo[1,2-a]pyridin-2-yl)methyl)-4-(2-hydroxyacetyl)-N-phenylpiperazine-1-sulfonamide], the pIC50 on human recombinant HDAC1 is less than 4.30. Further, at human recombinant HDAC6, the “HDAC6 selectivity (fold)” value worked out at 524 fold and the negative-log IC50 (pIC50) was 7.02.

Regarding `O=C(C1CCC1)N1CCN(S(=O)(=O)N(Cc2cn3ccc(-c4nnc(C(F)F)o4)cc3n2)c2ccccc2)CC1` [Compound 4268, 4-(cyclobutanecarbonyl)-N-((7-(5-(difluoromethyl)-1,3,4-oxadiazol-2-yl)imidazo[1,2-a]pyridine-2-yl)methyl)-N-phenylpiperazine-1-sulfonamide], the pIC50 on human recombinant HDAC1 was less than 4.30. Moreover, at human recombinant HDAC6, the “HDAC6 selectivity (fold)” value turned out to be 389 fold and the pIC50 is 6.89.

With `O=C(C1COC1)N1CCN(S(=O)(=O)N(Cc2cn3ccc(-c4nnc(C(F)F)o4)cc3n2)c2ccccc2)CC1` [Compound 4269, N-((7-(5-(difluoromethyl)-1,3,4-oxadiazol-2-yl)imidazo[1,2-a]pyridin-2-yl)methyl)-4-(oxetan-3-carbonyl)-N-phenylpiperazine-1-sulfonamide], the pIC50 at human recombinant HDAC1 is less than 4.30; at human recombinant HDAC6 it was 6.71. Moreover, on human recombinant HDAC6, the “HDAC6 selectivity (fold)” value stood at 259 fold.

Take `O=C(N1CCN(S(=O)(=O)N(Cc2cn3ccc(-c4nnc(C(F)F)o4)cc3n2)c2ccccc2)CC1)C(F)(F)F` [Compound 4270, N-((7-(5-(difluoromethyl)-1,3,4-oxadiazol-2-yl)imidazo[1,2-a]pyridin-2-yl)methyl)-N-phenyl-4-(2,2,2-trifluoroacetyl)piperazine-1-sulfonamide]: the negative logarithm of the IC50 (pIC50) on human recombinant HDAC1 was less than 4.30. Moreover, on human recombinant HDAC6, the “HDAC6 selectivity (fold)” value came to 327 fold and the negative logarithm of the IC50 (pIC50) is 6.82.

For `CS(=O)(=O)N1CCN(S(=O)(=O)N(Cc2cn3ccc(-c4nnc(C(F)F)o4)cc3n2)c2ccccc2)CC1` [Compound 4271, N-((7-(5-(difluoromethyl)-1,3,4-oxadiazol-2-yl)imidazo[1,2-a]pyridin-2-yl)methyl)-4-(methylsulfonyl)-N-phenylpiperazine-1-sulfonamide], the pIC50 on human recombinant HDAC1 is less than 4.30; on human recombinant HDAC6, 6.63. Moreover, on human recombinant HDAC6, the “HDAC6 selectivity (fold)” value was found to be 215 fold.

As for `COC(=O)N1CCN(S(=O)(=O)N(Cc2cn3ccc(-c4nnc(C(F)F)o4)cc3n2)c2ccccc2)CC1` [Compound 4272, methyl 4-(N-((7-(5-(difluoromethyl)-1,3,4-oxadiazol-2-yl)imidazo[1,2-a]pyridin-2-yl)methyl)-N-phenylsulfamoyl)piperazine-1-carboxylate], the pIC50 on human recombinant HDAC1 is less than 4.30. In addition, at human recombinant HDAC6, the “HDAC6 selectivity (fold)” value is 298 fold and the negative-log IC50 (pIC50) was 6.77.

Turning to `CN(C)C(=O)N1CCN(S(=O)(=O)N(Cc2cn3ccc(-c4nnc(C(F)F)o4)cc3n2)c2ccccc2)CC1` [Compound 4273, 4—(N-((7-(5-(difluoromethyl)-1,3,4-oxadiazol-2-yl)imidazo[1,2-a]pyridin-2-yl)methyl)-N-phenylsulfamoyl)-N, N-dimethylpiperazine-1-carboxamide], the figures for the pIC50 on human recombinant HDAC1 and at human recombinant HDAC6 were less than 4.30 and 6.92, respectively. Moreover, the “HDAC6 selectivity (fold)” value at human recombinant HDAC6 worked out at 413 fold.

On to `O=S(=O)(N1CCN(c2ccccn2)CC1)N(Cc1cn2ccc(-c3nnc(C(F)F)o3)cc2n1)c1ccccc1` [Compound 4274, N-((7-(5-(difluoromethyl)-1,3,4-oxadiazol-2-yl)imidazo[1,2-a]pyridin-2-yl)methyl)-N-phenyl-4-(pyridin-2-yl)piperazine-1-sulfonamide], for which the negative logarithm of the IC50 (pIC50) at human recombinant HDAC1 was less than 4.30; on human recombinant HDAC6, 6.82. For the same molecule, on human recombinant HDAC6, the “HDAC6 selectivity (fold)” value is 333 fold.

On to `O=S(=O)(N1CCN(c2ncccn2)CC1)N(Cc1cn2ccc(-c3nnc(C(F)F)o3)cc2n1)c1ccccc1` [Compound 4275, N-((7-(5-(difluoromethyl)-1,3,4-oxadiazol-2-yl)imidazo[1,2-a]pyridin-2-yl)methyl)-N-phenyl-4-(pyrimidin-2-yl)piperazine-1-sulfonamide], for which, on human recombinant HDAC1, the pIC50 was less than 4.30. For the same molecule, at human recombinant HDAC6, the “HDAC6 selectivity (fold)” value is given as 351 fold and the pIC50 is 6.85.

With `CN1CCN(S(=O)(=O)N(Cc2cn3ccc(-c4nnc(C(F)F)o4)cc3n2)c2cccc(F)c2)CC1` [Compound 4297, N-((7-(5-(difluoromethyl)-1,3,4-oxadiazol-2-yl)imidazo[1,2-a]pyridin-2-yl)methyl)-N-(3-fluorophenyl)-4-methylpiperazine-1-sulfonamide], on human recombinant HDAC1, the pIC50 is less than 4.30. In addition, at human recombinant HDAC6, the “HDAC6 selectivity (fold)” value is 561 fold and the pIC50 was 7.05.

As for `CCN1CCN(S(=O)(=O)N(Cc2cn3ccc(-c4nnc(C(F)F)o4)cc3n2)c2cccc(F)c2)CC1` [Compound 4298, N-((7-(5-(difluoromethyl)-1,3,4-oxadiazol-2-yl)imidazo[1,2-a]pyridin-2-yl)methyl)-4-ethyl-N-(3-fluorophenyl)-piperazine-1-sulfonamide], at human recombinant HDAC1, the pIC50 is less than 4.30. In addition, at human recombinant HDAC6, the “HDAC6 selectivity (fold)” value came out at 631 fold and the pIC50 is 7.10.

Regarding `CC(C)N1CCN(S(=O)(=O)N(Cc2cn3ccc(-c4nnc(C(F)F)o4)cc3n2)c2cccc(F)c2)CC1` [Compound 4299, N-((7-(5-(difluoromethyl)-1,3,4-oxadiazol-2-yl)imidazo[1,2-a]pyridin-2-yl)methyl)-N-(3-fluorophenyl)-4-isopropylpiperazine-1-sulfonamide], the pIC50 on human recombinant HDAC1 was less than 4.30. At human recombinant HDAC6, the “HDAC6 selectivity (fold)” value was 488 fold and the pIC50 is 6.99.

For the molecule `CC(CO)N1CCN(S(=O)(=O)N(Cc2cn3ccc(-c4nnc(C(F)F)o4)cc3n2)c2cccc(F)c2)CC1` (stereo not drawn) [Compound 4300, N-((7-(5-(difluoromethyl)-1,3,4-oxadiazol-2-yl)imidazo[1,2-a]pyridin-2-yl)methyl)-N-(3-fluorophenyl)-4-(1-hydroxypropan-2-yl)piperazine-1-sulfonamide], the pIC50 at human recombinant HDAC1 is less than 4.30. At human recombinant HDAC6, the “HDAC6 selectivity (fold)” value is 410 fold and the negative-log IC50 (pIC50) is 6.91.

As to `O=S(=O)(N1CCN(C2CCC2)CC1)N(Cc1cn2ccc(-c3nnc(C(F)F)o3)cc2n1)c1cccc(F)c1` [Compound 4301, 4-cyclobutyl-N-((7-(5-(difluoromethyl)-1,3,4-oxadiazol-2-yl)imidazo[1,2-a]pyridin-2-yl)methyl)-N-(3-fluorophenyl)piperazine-1-sulfonamide], the negative-log IC50 (pIC50) at human recombinant HDAC1 was less than 4.30; on human recombinant HDAC6, 7.08. For the same molecule, the “HDAC6 selectivity (fold)” value at human recombinant HDAC6 is on record as 595 fold.

For `O=S(=O)(N1CCN(C2COC2)CC1)N(Cc1cn2ccc(-c3nnc(C(F)F)o3)cc2n1)c1cccc(F)c1` [Compound 4302], the negative-log IC50 (pIC50) on human recombinant HDAC1 is less than 4.30. In addition, on human recombinant HDAC6, the “HDAC6 selectivity (fold)” value is 737 fold and the pIC50 was 7.17.

Regarding `O=S(=O)(N1CCN(C2CCCCC2)CC1)N(Cc1cn2ccc(-c3nnc(C(F)F)o3)cc2n1)c1cccc(F)c1` [Compound 4303, 4-cyclohexyl-N-((7-(5-(difluoromethyl)-1,3,4-oxadiazol-2-yl)imidazo[1,2-a]pyridin-2-yl)methyl)-N-(3-fluorophenyl)piperazine-1-sulfonamide], the pIC50 on human recombinant HDAC1 is less than 4.30. For the same molecule, at human recombinant HDAC6, the “HDAC6 selectivity (fold)” value was determined as 299 fold and the pIC50 is 6.78.
